In data set [1] the target is T1, ABCG2 (BCRP/MXR) (Homo sapiens, UniProt Q9UNQ0).
T1 sequence (Q9UNQ0 1-655): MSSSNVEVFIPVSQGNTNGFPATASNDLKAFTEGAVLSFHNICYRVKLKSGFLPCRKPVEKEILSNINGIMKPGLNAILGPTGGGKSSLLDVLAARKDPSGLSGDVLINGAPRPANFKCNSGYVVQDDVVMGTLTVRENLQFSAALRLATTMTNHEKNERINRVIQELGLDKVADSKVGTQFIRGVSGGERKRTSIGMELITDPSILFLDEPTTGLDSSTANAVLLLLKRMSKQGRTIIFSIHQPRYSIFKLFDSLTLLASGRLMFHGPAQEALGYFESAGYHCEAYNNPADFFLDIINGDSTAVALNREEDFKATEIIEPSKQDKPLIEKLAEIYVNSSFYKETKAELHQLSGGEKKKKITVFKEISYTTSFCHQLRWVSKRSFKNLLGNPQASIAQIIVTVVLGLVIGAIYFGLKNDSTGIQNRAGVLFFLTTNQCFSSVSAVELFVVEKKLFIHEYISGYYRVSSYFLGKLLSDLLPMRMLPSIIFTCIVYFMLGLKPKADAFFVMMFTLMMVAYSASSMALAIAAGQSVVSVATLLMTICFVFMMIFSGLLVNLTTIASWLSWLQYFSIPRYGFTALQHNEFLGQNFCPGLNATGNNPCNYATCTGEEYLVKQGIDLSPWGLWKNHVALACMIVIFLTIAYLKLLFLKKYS
Put plainly: competition of […]-IAAP photoaffinity labeling in membranes; also effect on vanadate-sensitive ATPase activity. Further details: Crude membranes from High Five insect cells expressing ABCG2. It is filed as binding.

For data set [2], the target named is T1, ABCG2 (BCRP/MXR). Briefly: reversal of mitoxantrone resistance in ABCG2-transfected versus mock HEK293 cells (MTT), […]. In kind it is cell-based. More on the design: HEK293/ABCG2-R2 stably transfected cells.

Turning to `Cc1cc(Nc2ncc(Cl)c(Nc3ccccc3S(=O)(=O)C(C)C)n2)c(OC(C)C)cc1C1CCNCC1` [Ceritinib, 5-chloro-N2-(2-isopropoxy-5-methyl-4-(piperidin-4-yl)phenyl)-N4-(2-(isopropylsulfonyl)phenyl)pyrimidine-2,4-diamine], the “competition of [125I]-IAAP photoaffinity labeling in membranes; also effect on v” value on ABCG2 (BCRP/MXR) [1] is “ceritinib binds with high affinity to both the ABCB1 and ABCG2 substrate-binding sites”. `COc1ccc2c3c([nH]c2c1)[C@H](C=C(C)C)N1C(=O)[C@@H]2CCCN2C(=O)[C@@H]1C3` [Fumitremorgin C]: on ABCG2 (BCRP/MXR) [2], the “(fold-reversal) / HEK293/ABCB1” value amounted to 26.81 fold-reversal.
